Patent US20250171420A1 (Monte Rosa Therapeutics, Inc., priority 2022, published 2025)

target: T1, CK1α (Homo sapiens, UniProt P48729); test: CK1α NanoBit Assay (HiBiT-tagged CSNK1A1, HEK293 clonal lines); type: cell-based; conditions: HEK293 HiBiT-CSNK1A1/LgBiT cells, 24 h incubation
T1 construct: HEK293 clonal lines with CRISPR KI HiBiT tag on CSNK1A1
Protocol: HEK293 clonal lines with CRISPR KI HiBiT tag on CSNK1A1 and stably expressing LgBiT protein were obtained from Promega (Madison, WI). […] Cells were incubated at 37° C., 5% CO2 for 24 hours and then signal was read on a Pherastar FSX using “LUM plus” optic module.
Data analysis was performed in Scinamic (Scinamic, Cambridge, MA). Luminescence response (R) was calculated by the formula: response=100*(S−N)/(P−N) where S is the signal of the well, N and P the mean negative and positive control values respectively of the same plate.
DC50 data are reported in Table 2 for compounds in Table 1. In Table 2 below, According to the code, A represents a DC50 value of ≤0.1 μM, B represents a DC50 value>0.1 μM and ≤1 μM, C represents an DC50 value>1 μM.

T1 sequence (P48729 whole entry): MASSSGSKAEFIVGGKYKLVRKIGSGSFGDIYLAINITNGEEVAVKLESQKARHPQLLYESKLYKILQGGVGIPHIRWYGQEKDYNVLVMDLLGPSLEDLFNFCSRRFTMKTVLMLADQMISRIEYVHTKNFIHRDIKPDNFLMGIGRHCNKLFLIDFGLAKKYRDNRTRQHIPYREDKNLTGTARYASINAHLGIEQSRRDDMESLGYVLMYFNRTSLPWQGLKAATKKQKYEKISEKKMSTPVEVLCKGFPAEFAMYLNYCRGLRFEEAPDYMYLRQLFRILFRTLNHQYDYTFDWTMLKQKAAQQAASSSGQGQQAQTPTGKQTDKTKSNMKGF
T1 sequence (Q96SW2 whole entry, further chain): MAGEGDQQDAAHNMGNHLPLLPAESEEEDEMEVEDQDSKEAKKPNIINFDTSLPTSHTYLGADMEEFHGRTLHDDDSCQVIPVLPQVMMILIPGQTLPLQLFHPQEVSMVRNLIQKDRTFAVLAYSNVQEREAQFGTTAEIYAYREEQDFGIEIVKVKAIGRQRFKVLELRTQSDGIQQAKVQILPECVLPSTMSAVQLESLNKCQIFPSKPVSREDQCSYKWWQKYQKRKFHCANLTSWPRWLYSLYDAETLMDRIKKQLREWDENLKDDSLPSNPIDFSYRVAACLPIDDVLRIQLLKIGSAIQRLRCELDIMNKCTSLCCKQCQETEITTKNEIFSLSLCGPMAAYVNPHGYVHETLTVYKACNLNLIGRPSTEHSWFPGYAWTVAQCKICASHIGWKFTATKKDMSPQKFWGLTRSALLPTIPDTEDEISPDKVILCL
T1 sequence (Q16531 2-1140 partner limits assumed): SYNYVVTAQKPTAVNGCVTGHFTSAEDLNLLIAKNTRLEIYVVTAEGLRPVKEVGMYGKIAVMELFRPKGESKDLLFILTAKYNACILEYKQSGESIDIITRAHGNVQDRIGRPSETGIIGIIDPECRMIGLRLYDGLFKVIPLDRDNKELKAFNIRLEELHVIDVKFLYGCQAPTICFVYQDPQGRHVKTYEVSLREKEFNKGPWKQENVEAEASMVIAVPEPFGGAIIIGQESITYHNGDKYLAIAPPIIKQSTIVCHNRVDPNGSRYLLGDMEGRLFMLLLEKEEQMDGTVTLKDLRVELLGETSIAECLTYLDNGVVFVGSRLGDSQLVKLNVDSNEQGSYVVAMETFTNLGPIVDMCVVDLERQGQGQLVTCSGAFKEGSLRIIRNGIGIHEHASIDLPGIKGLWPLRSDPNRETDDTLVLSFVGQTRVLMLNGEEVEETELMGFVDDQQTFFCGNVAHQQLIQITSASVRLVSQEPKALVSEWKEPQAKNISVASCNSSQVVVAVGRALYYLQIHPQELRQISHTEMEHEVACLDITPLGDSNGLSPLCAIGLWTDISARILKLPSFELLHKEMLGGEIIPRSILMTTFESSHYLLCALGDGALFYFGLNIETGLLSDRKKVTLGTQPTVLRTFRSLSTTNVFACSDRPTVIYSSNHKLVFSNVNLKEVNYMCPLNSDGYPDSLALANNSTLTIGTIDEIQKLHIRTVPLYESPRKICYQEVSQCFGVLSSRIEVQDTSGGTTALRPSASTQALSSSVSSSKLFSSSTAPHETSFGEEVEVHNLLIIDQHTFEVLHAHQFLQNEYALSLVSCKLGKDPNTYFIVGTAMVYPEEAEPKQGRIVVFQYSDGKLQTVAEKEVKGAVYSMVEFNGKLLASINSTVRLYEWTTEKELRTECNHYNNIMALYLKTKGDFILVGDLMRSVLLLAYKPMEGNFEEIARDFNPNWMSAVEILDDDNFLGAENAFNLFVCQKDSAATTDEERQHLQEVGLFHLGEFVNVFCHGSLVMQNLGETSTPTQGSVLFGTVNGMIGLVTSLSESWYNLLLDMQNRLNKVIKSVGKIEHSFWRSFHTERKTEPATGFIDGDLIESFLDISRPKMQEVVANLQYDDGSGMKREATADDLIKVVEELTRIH

Compound | DC50 [µM]
CC(C)C1(c2ccccc2)CN(C(=O)Nc2ccc3c(c2)CN(C2CCC(=O)NC2=O)C3=O)C1 (centres unmarked) [Compound 233] | 0.1 to 1
O=C1CCC(N2Cc3cc(NC(=O)N4CCN(c5ccccn5)CC4)ccc3C2=O)C(=O)N1 (centres unmarked) [Compound 271] | 0.1 to 1
O=C1CCC(N2Cc3cc(NC(=O)N4CCC(O)CC4)ccc3C2=O)C(=O)N1 (centres unmarked) [Compound 251] | > 1
N#Cc1ccc(C2CN(C(=O)Nc3ccc4c(c3)CN(C3CCC(=O)NC3=O)C4=O)C2)cc1 (centres unmarked) [Compound 244] | 0.1 to 1
CC1CCc2ccccc2N1C(=O)Nc1ccc2c(c1)CN(C1CCC(=O)NC1=O)C2=O (centres unmarked) [Compound 120] | 0.1 to 1
Cc1cccc2c1CCCN2C(=O)Nc1ccc2c(c1)CN(C1CCC(=O)NC1=O)C2=O (centres unmarked) [Compound 122] | 0.1 to 1
O=C1CCC(N2Cc3cc(NC(=O)N4CCCCC4C4CC4)ccc3C2=O)C(=O)N1 (centres unmarked) [Compound 232] | 0.1 to 1
O=C1CCC(N2Cc3cc(NC(=O)N4CCCc5cccc(F)c54)ccc3C2=O)C(=O)N1 (centres unmarked) [Compound 157] | 0.1 to 1
CC1(C)c2ccccc2CCN1C(=O)Nc1ccc2c(c1)CN(C1CCC(=O)NC1=O)C2=O (centres unmarked) [Compound 156] | > 1
CC(C)c1cccc2c1N(C(=O)Nc1ccc3c(c1)CN(C1CCC(=O)NC1=O)C3=O)CCC2 (centres unmarked) [Compound 155] | 0.1 to 1
N#Cc1cccc2c1CN(C(=O)Nc1ccc3c(c1)CN(C1CCC(=O)NC1=O)C3=O)C2 (centres unmarked) [Compound 213] | 0.1 to 1
Cn1ccc(C2CCCN(C(=O)Nc3ccc4c(c3)CN(C3CCC(=O)NC3=O)C4=O)C2)n1 (centres unmarked) [Compound 267] | 0.1 to 1
O=C1CCC(N2Cc3cc(NC(=O)N4CC(CC(F)F)(c5ccccc5)C4)ccc3C2=O)C(=O)N1 (centres unmarked) [Compound 237] | 0.1 to 1
O=C1CCC(N2Cc3cc(NC(=O)N4CCCc5cccnc54)ccc3C2=O)C(=O)N1 (centres unmarked) [Compound 146] | 0.1 to 1
O=C1CCC(N2Cc3cc(NC(=O)N4CC5[C@@H](CCN5c5ccccc5)C4)ccc3C2=O)C(=O)N1 (some centres unmarked) [Compound 236] | 0.1 to 1
O=C1CCC(N2Cc3cc(NC(=O)N4Cc5ccncc5C4)ccc3C2=O)C(=O)N1 (centres unmarked) [Compound 144] | 0.1 to 1
O=C1CCC(N2Cc3cc(NC(=O)N4CCC(c5ccc(F)cn5)C4)ccc3C2=O)C(=O)N1 (centres unmarked) [Compound 239] | 0.1 to 1
O=C1CCC(N2Cc3cc(NC(=O)N4CCN(c5cccnc5)CC4)ccc3C2=O)C(=O)N1 (centres unmarked) [Compound 249] | > 1
CC1CCCN(C(=O)Nc2ccc3c(c2)CN(C2CCC(=O)NC2=O)C3=O)C1 (centres unmarked) [Compound 280] | 0.1 to 1
O=C1CCC(N2Cc3cc(NC(=O)N4CCN(c5nccs5)CC4)ccc3C2=O)C(=O)N1 (centres unmarked) [Compound 242] | > 1
O=C1CCC(N2Cc3cc(NC(=O)N4CCC(c5ncccn5)C4)ccc3C2=O)C(=O)N1 (centres unmarked) [Compound 229] | > 1
O=C1CCC(N2Cc3cc(NC(=O)N4CCN(C56CC(C5)C6)CC4)ccc3C2=O)C(=O)N1 (centres unmarked) [Compound 234] | > 1
CC1CCN(C(=O)Nc2ccc3c(c2)CN(C2CCC(=O)NC2=O)C3=O)CC1 (centres unmarked) [Compound 281] | 0.1 to 1
Cc1ccnc(C2CCN(C(=O)Nc3ccc4c(c3)CN(C3CCC(=O)NC3=O)C4=O)CC2)n1 (centres unmarked) [Compound 246] | > 1
O=C1CCC(N2Cc3cc(NC(=O)N4Cc5ccc(C(F)F)cc5C4)ccc3C2=O)C(=O)N1 (centres unmarked) [Compound 168] | < 0.1

Compound | DC50 [µM]
Cc1ccccc1C1CN(C(=O)Nc2ccc3c(c2)CN(C2CCC(=O)NC2=O)C3=O)C1 (centres unmarked) [Compound 227] | < 0.1
O=C1CCC(N2Cc3cc(NC(=O)N4CC5CC5c5cc(Br)ccc54)ccc3C2=O)C(=O)N1 (centres unmarked) [Compound 173] | < 0.1
O=C1CCC(N2Cc3cc(NC(=O)N4CCN(c5cnccn5)CC4)ccc3C2=O)C(=O)N1 (centres unmarked) [Compound 254] | > 1
O=C1CCC(N2Cc3cc(NC(=O)N4CCCCC4C(F)(F)F)ccc3C2=O)C(=O)N1 (centres unmarked) [Compound 219] | < 0.1
O=C1CCC(N2Cc3cc(NC(=O)N4Cc5cccnc5C4)ccc3C2=O)C(=O)N1 (centres unmarked) [Compound 121] | 0.1 to 1
CC1Cc2ccccc2C(C)N1C(=O)Nc1ccc2c(c1)CN(C1CCC(=O)NC1=O)C2=O (centres unmarked) [Compound 166] | < 0.1
CC1CN(c2ccccc2)CCN1C(=O)Nc1ccc2c(c1)CN(C1CCC(=O)NC1=O)C2=O (centres unmarked) [Compound 257] | 0.1 to 1
CC1(c2ccccc2)CCCN(C(=O)Nc2ccc3c(c2)CN(C2CCC(=O)NC2=O)C3=O)C1 (centres unmarked) [Compound 259] | 0.1 to 1
O=C1CCC(N2Cc3cc(NC(=O)N4CCCc5cc(F)ccc54)ccc3C2=O)C(=O)N1 (centres unmarked) [Compound 141] | < 0.1
Cc1cccc2c1N(C(=O)Nc1ccc3c(c1)CN(C1CCC(=O)NC1=O)C3=O)CCC2 (centres unmarked) [Compound 139] | 0.1 to 1
CC1CN(C(=O)Nc2ccc3c(c2)CN(C2CCC(=O)NC2=O)C3=O)c2ccccc21 (centres unmarked) [Compound 119] | < 0.1
CC(C)[C@]12C[C@H]1CN(C(=O)Nc1ccc3c(c1)CN(C1CCC(=O)NC1=O)C3=O)C2 (some centres unmarked) [Compound 235] | < 0.1
O=C1CCC(N2Cc3cc(NC(=O)N4Cc5ccccc5C5(CC5)C4)ccc3C2=O)C(=O)N1 (centres unmarked) [Compound 136] | < 0.1
O=C1CCC(N2Cc3cc(NC(=O)N4C[C@H]5CC4[C@H](c4ccccc4)C5)ccc3C2=O)C(=O)N1 (some centres unmarked) [Compound 230] | 0.1 to 1
O=C1CCC(N2Cc3cc(NC(=O)N4C[C@@H]5[C@H]6CC[C@H](C6)[C@@H]5C4)ccc3C2=O)C(=O)N1 (some centres unmarked) [Compound 220] | < 0.1
Cc1cc2c(cn1)CCN2C(=O)Nc1ccc2c(c1)CN(C1CCC(=O)NC1=O)C2=O (centres unmarked) [Compound 113] | > 1
O=C1CCC(N2Cc3cc(NC(=O)N4CCC(c5nccs5)C4)ccc3C2=O)C(=O)N1 (centres unmarked) [Compound 247] | 0.1 to 1
CC1CCCCN1C(=O)Nc1ccc2c(c1)CN(C1CCC(=O)NC1=O)C2=O (centres unmarked) [Compound 282] | 0.1 to 1
O=C1CC[C@@H](N2Cc3cc(NC(=O)N4c5ccccc5C[C@@H]4C(F)(F)F)ccc3C2=O)C(=O)N1 (single isomer, unassigned) [Compound 360] | < 0.1
O=C1CCC(N2Cc3cc(NC(=O)N4CCc5ccccc5C4c4ccccc4)ccc3C2=O)C(=O)N1 (centres unmarked) [Compound 211] | < 0.1
CCC1(c2ccccc2)CN(C(=O)Nc2ccc3c(c2)CN(C2CCC(=O)NC2=O)C3=O)C1 (centres unmarked) [Compound 252] | 0.1 to 1
Cc1cccc(C2CN(C(=O)Nc3ccc4c(c3)CN(C3CCC(=O)NC3=O)C4=O)C2)c1 (centres unmarked) [Compound 226] | < 0.1
O=C1CCC(N2Cc3cc(NC(=O)N4C[C@@H]5C[C@]5(C(F)F)C4)ccc3C2=O)C(=O)N1 (some centres unmarked) [Compound 240] | 0.1 to 1
Cn1nccc1C1CCCN(C(=O)Nc2ccc3c(c2)CN(C2CCC(=O)NC2=O)C3=O)C1 (centres unmarked) [Compound 250] | > 1

The next lines start with the values.

DC50 [µM] | Compound
< 0.1 | O=C1CCC(N2Cc3cc(NC(=O)N4CCCCC4c4ccccc4)ccc3C2=O)C(=O)N1 (centres unmarked) [Compound 253]
< 0.1 | Cc1ccc2c(c1)CN(C(=O)Nc1ccc3c(c1)CN(C1CCC(=O)NC1=O)C3=O)C2 (centres unmarked) [Compound 175]
< 0.1 | C[C@H]1c2ccccc2[C@H](C)N1C(=O)Nc1ccc2c(c1)CN(C1CCC(=O)NC1=O)C2=O (some centres unmarked) [Compound 172]
< 0.1 | Cc1ccc2c(c1)CCCN2C(=O)Nc1ccc2c(c1)CN(C1CCC(=O)NC1=O)C2=O (centres unmarked) [Compound 140]
< 0.1 | C[C@@H]1c2ccccc2CN1C(=O)Nc1ccc2c(c1)CN(C1CCC(=O)NC1=O)C2=O (some centres unmarked) [Compound 170]
< 0.1 | O=C1CC[C@H](N2Cc3cc(NC(=O)N4c5ccccc5C[C@H]4C(F)(F)F)ccc3C2=O)C(=O)N1 (single isomer, unassigned) [Compound 361]
< 0.1 | Cc1ccc(C2CN(C(=O)Nc3ccc4c(c3)CN(C3CCC(=O)NC3=O)C4=O)C2)cc1 (centres unmarked) [Compound 228]
< 0.1 | CC1(C)Cc2ccccc2N(C(=O)Nc2ccc3c(c2)CN(C2CCC(=O)NC2=O)C3=O)C1 (centres unmarked) [Compound 165]
< 0.1 | O=C1CCC(N2Cc3cc(NC(=O)N4CCC(C5CC5)C4)ccc3C2=O)C(=O)N1 (centres unmarked) [Compound 277]
< 0.1 | O=C1CCC(N2Cc3cc(NC(=O)N4CC(c5ccc(F)cc5)C4)ccc3C2=O)C(=O)N1 (centres unmarked) [Compound 269]
< 0.1 | COc1ccc2c(c1)CN(C(=O)Nc1ccc3c(c1)CN(C1CCC(=O)NC1=O)C3=O)C2 (centres unmarked) [Compound 199]
< 0.1 | O=C1CCC(N2Cc3cc(NC(=O)N4CCCc5ccc(C(F)(F)F)cc54)ccc3C2=O)C(=O)N1 (centres unmarked) [Compound 114]
< 0.1 | CC(C)C1c2ccccc2CCN1C(=O)Nc1ccc2c(c1)CN(C1CCC(=O)NC1=O)C2=O (centres unmarked) [Compound 181]
< 0.1 | O=C1CCC(N2Cc3cc(NC(=O)N4Cc5ccccc5C(C(F)(F)F)C4)ccc3C2=O)C(=O)N1 (centres unmarked) [Compound 196]
< 0.1 | O=C1CCC(N2Cc3cc(NC(=O)N4CCCC4c4ccccc4)ccc3C2=O)C(=O)N1 (centres unmarked) [Compound 264]
< 0.1 | O=C1CCC(N2Cc3cc(NC(=O)N4Cc5ccccc5C(F)(F)C4)ccc3C2=O)C(=O)N1 (centres unmarked) [Compound 204]
< 0.1 | O=C1CCC(N2Cc3cc(NC(=O)N4CC(c5ccc(Cl)cc5)C4)ccc3C2=O)C(=O)N1 (centres unmarked) [Compound 231]
< 0.1 | O=C1CCC(N2Cc3cc(NC(=O)N4CCc5ccccc5C4C(F)(F)F)ccc3C2=O)C(=O)N1 (centres unmarked) [Compound 130]
< 0.1 | O=C1CCC(N2Cc3cc(NC(=O)N4CCCC(C5CCC5)C4)ccc3C2=O)C(=O)N1 (centres unmarked) [Compound 248]
< 0.1 | O=C1CCC(N2Cc3cc(NC(=O)N4CCc5ccc(F)cc5C4)ccc3C2=O)C(=O)N1 (centres unmarked) [Compound 180]
< 0.1 | Cc1cc(C)c2c(n1)CN(C(=O)Nc1ccc3c(c1)CN(C1CCC(=O)NC1=O)C3=O)C2 (centres unmarked) [Compound 118]
< 0.1 | O=C1CCC(N2Cc3cc(NC(=O)N4CCCc5ccc(F)cc54)ccc3C2=O)C(=O)N1 (centres unmarked) [Compound 116]
